According to article PMC7555839 (Frontiers in Microbiology, 2020):
≈ marks a conversion by molar mass, not a printed value. Where two headings read alike, the source gives them in different places.

Tests used:
[1] = system: Salmonella typhimurium TA98; conditions: Positive control
[2] = system: Salmonella typhimurium TA1535; conditions: Positive control
[3] = system: Salmonella typhimurium TA100; conditions: Positive control
plasma proteins = conditions: cited from earlier work
[4] = system: Escherichia coli mutant [wp2 (pKM101)]; conditions: Positive control, + S9, 4 µg/well
[5] = system: Salmonella typhimurium TA1537; assay: Ames test; conditions: Positive control
[6] = system: Staphylococcus aureus USA300 JE2; assay: Broth microdilution (MIC/MBC); assay type: cell-based; conditions: USA300, broth microdilution, starter concentration of the tolerance assay, read-out: MIC value for USA300
MRSA strain 43484 = assay: Mouse skin (wound) infection model, topical treatment; assay type: in vivo, Staphylococcus aureus; conditions: 2%, 50 μl topical twice daily for 3 days, female mice, skin biopsies day 4
Experimental: To study the effect of topical treatment with JBC 1847 against MRSA strain 43484, a mouse skin infection model was established. Initially, female mice (18–22 g) were orally treated with 45 μl nurofen (20 mg ibuprofen/ml) and anaesthetized with 0.15 ml s.c. of Zoletil mix. The fur was removed from an area of 6 cm^2 and a part of epidermis was subsequently scraped off to obtain a 1 cm^2 superficial skin lesion. The mice were inoculated with 10 μl of a saline solution containing approximately 10^7 CFU. The day after inoculation, topical treatment with 50 μl test compound was initiated and performed twice daily for a 3-day period. Fucidic acid was included as a positive control, and vehicle treatment was included as a negative control. Through the entire study, the behavior and clinical signs of the mice were carefully observed. Mice were killed the day after last treatment, and skin biopsies from the wounded area were collected. The skin samples were homogenized using a Dispomixer and serially diluted in saline/Triton X. To determine the bacterial concentration, 20 μl spots were transferred to MRSA Brilliance agar plates (Oxoid, Thermo Scientific, Roskilde, Denmark) and incubated 20–48 h at 35°C.
Data were statically analyzed and visualized using RStudio v3.6.3 ([R Core Team, 2020]) and Microsoft excel. In general, the values reflecting the bacterial concentration (CFU/ml) were transformed into a logarithmic scale. In the growth and viability assay, the mean numbers of the bacterial concentrations from the triplicates were plotted against time and standard deviations shown as error bars. To investigate differences in bacterial concentration between treatment groups in the in vivo assay, multiple group comparisons were performed using ANOVA and P < 0.05 considered significant. The data was visualized in a standard box plot.

[7] = system: fusidic acid-resistant S. aureus isolates; parameters: method as in Castanheira et al., 2010; conditions: ref Castanheira et al., 2010; cited from earlier work
S. aureus USA300 = assay: Induced tolerance assay (23 days); conditions: for MIC: Staphylococcus aureus
MRSA strain = system: MRSA strain; parameters: method as in Nehme et al., 2018; conditions: broth dilution method, ref Nehme et al., 2018; cited from earlier work
E. coli strains = system: E. coli strains; parameters: method as in Nehme et al., 2018; conditions: broth dilution method, ref Nehme et al., 2018; cited from earlier work

SMILES: O=[N+]([O-])c1ccc2c(c1)Cc1ccccc1-2 [2-NF, 2-Nitrofluorene, reference compound]
- Mean number of reverse mutated colonies ([1]; TA98, −S9, 2 µg/well): 268.00 ± 28.84

SMILES: [N-]=[N+]=[N-].[Na+] [SA, Sodium azide, reference compound]
- Mean number of reverse mutated colonies ([2]; TA1535, −S9, 0.24 µg/well): 111.0 ± 9.54
- Mean number of reverse mutated colonies ([3]; TA100, −S9, 0.24 µg/well): 176.0 ± 46.13

SMILES: CO/N=C(\C(=O)N[C@@H]1C(=O)N2C(C(=O)O)=C(CSc3nc(=O)c(=O)[nH]n3C)CS[C@H]12)c1csc(N)n1 [ceftriaxone]
- PPB (plasma protein binding) (plasma proteins; ref Dutta et al., 2001): 90–95%

SMILES: Nc1ccc2cc3ccccc3cc2c1 [2-AA, 2-Aminoanthracene, reference compound]
- Mean number of reverse mutated colonies ([1]; TA98, + S9, 0.6 µg/well): 332.0 ± 36.66
- Mean number of reverse mutated colonies ([2]; TA1535, + S9, 0.6 µg/well): 34.00 ± 5.20
- Mean number of reverse mutated colonies ([3]; TA100, + S9, 0.6 µg/well): 240.0 ± 49.15
- Mean number of reverse mutated colonies [4]: 161.33 ± 18.90
- Mean number of reverse mutated colonies ([5]; TA1537, + S9, 0.6 µg/well): 60.00 ± 5.00

SMILES: COc1ccc2nc3cc(Cl)ccc3c(NCCCNCCCl)c2c1 [ICR 191, Acridine Mutagen (ICR 191), reference compound]
- Mean number of reverse mutated colonies ([5]; TA1537, −S9, 0.2 µg/well): 54.67 ± 16.26

SMILES: CC(=O)O[C@H]1C[C@@]2(C)[C@@H](C[C@@H](O)[C@H]3[C@@]4(C)CC[C@@H](O)[C@@H](C)[C@@H]4CC[C@@]32C)/C1=C(\CCC=C(C)C)C(=O)O [Fusidic acid, reference compound]
- MIC [6]: 0.03 µg/mL (≈ 0.0581 µM)
- Reduction of bacterial counts compared with the vehicle (MRSA strain 43484): 1.5 log10 CFU
- MIC values (highly elevated) [7]: ≥ 512 µg/mL
- MIC (S. aureus USA300; USA300, 24 h, read-out: MIC Day 1): 0.03 µg/mL (≈ 0.0581 µM)
- MIC (S. aureus USA300; USA300, 552 h, read-out: MIC Day 23): 7 µg/mL (≈ 13.5 µM)
- Increase in MIC (S. aureus USA300; tolerance assay, during the 23 days): 233 fold
- PPB (plasma protein binding) (plasma proteins; ref Zeitlinger et al., 2011): approximately 98%

SMILES: CN(C)CCCN1c2ccccc2Sc2ccccc21 [Promazine]
- MIC (MRSA strain): 128 µg/mL (≈ 450 µM)
- MIC (E. coli strains): 128 µg/mL (≈ 450 µM)
